{"source": "patent US20240350481A1", "about": "“USE OF N-MYRISTOYL TRANSFERASE (NMT) INHIBITORS IN THE TREATMENT OF CANCER, AUTOIMMUNE DISORDERS, AND INFLAMMATORY DISORDERS” (PACYLEX PHARMACEUTICALS INC., priority 2020, published 2024)", "assay": "Toxicology in DOHH2 xenograft mice", "conditions": "for Absolute Eosinophil cells / Absolute Neutrophil cells / Absolute Lymphocyte cells / WBC / MPV / RBC / Hemoglobin / RDW % / MCH / MCHC / Hematocrit % / MCV / Platelets / Reticulocyte % / Absolute Basophil cells / Absolute Monocyte cells / Aspartate Transaminase / Bilirubin / Creatine PhosphoKinase / Creatinine: DOHH2 xenograft; for Absolute Eosinophil cells / Absolute Basophil cells: normal [0-0.2]; for Absolute Neutrophil cells: normal [0.1-2.4]; for Absolute Lymphocyte cells: normal [0.9-9.3]; for WBC: normal [1.8-10.7]; for MPV: normal [5-20]; for RBC: normal [6.36-9.42]; for Hemoglobin: normal [11-15.1]; for RDW %: normal [12.4-27]; for MCH: normal [14.1-19.3]; for MCHC: normal [30.2-34.2]; for Hematocrit %: normal [35.1-45.4]; for MCV: normal [45.4-60.3]; for Platelets: normal [592-2972]; for Absolute Monocyte cells: normal [0-0.4]; for Aspartate Transaminase / Bilirubin / Creatine PhosphoKinase / Creatinine: mean ± SEM, n = 3", "key": {"[1]": {"conditions": "c2, head missing (per Table 4: PCLX-001 10 mg/kg/day)"}, "[2]": {"conditions": "c3, head missing (per Table 4: PCLX-001 20 mg/kg/day)"}, "[3]": {"conditions": "c4, head missing (per Table 4: PCLX-001 50 mg/kg/day Interm.)"}, "[4]": {"conditions": "c5, head missing (per Table 4: PCLX-001 50 mg/kg/day)"}}, "experimental": "Mice were observed daily for clinical signs of toxicity and effects on body weight. After the last dose, three mice/group were euthanized and necropsied. At euthanasia, blood samples were taken for hematology analyses and to measure AST and CK activities and bilirubin and creatinine concentrations. At necropsy, samples of samples of femur, both kidneys, liver, small intestine, and injection site were taken and fixed.\nThe dose volume was 10 mL/kg. At the end of the two-to three-week dosing period, mice were euthanized and three/group were necropsied. Mice that died or were euthanized early for humane reasons also were necropsied. In life, mice were monitored regularly and weighed daily, and tumors were measured with digital Vernier calipers (Mitutoyo) every other day. Tumor volume was calculated as length (mm)×width (mm)2/2; length and width were the longest and shortest diameters, respectively. At euthanasia, at the end of the dosing period blood samples were taken for hematology analyses and clinical chemistry analyses that included AST and CK activities and bilirubin and creatinine concentrations (plus ALT activity and BUN concentration in the Jackson Laboratory study). At necropsy, samples of femur, both kidneys, liver, small intestine, and injection site were collected and fixed. These were subsequently processed and examined by light microscopy for histopathologic findings. Also at necropsy, the tumors were removed and divided in two. One piece was fixed in 10% neutral buffered formalin for 24 h at room temperature and embedded in paraffin; the other was snap frozen for RNA and protein analysis. Tumor growth inhibition (TGI) for all xenograft experiments was calculated following the formula:"}
{"smiles": "Cc1c(N[S+](=O)([O-])c2c(Cl)cc(-c3ccnc(N4CCNCC4)c3)cc2Cl)c(CC(C)C)nn1C", "note": "[PCLX-001]", "values": [{"measurement": "Absolute Eosinophil cells", "setting": "PCLX-001 20 mg/kg/day", "value": "0.02 ± 0.01", "unit": "K/ul"}, {"measurement": "Absolute Neutrophil cells", "setting": "PCLX-001 20 mg/kg/day", "value": "3.94 ± 0.94", "unit": "K/ul"}, {"measurement": "Absolute Lymphocyte cells", "setting": "PCLX-001 20 mg/kg/day", "value": "0.84 ± ? .15 K/ul"}, {"measurement": "WBC", "setting": "PCLX-001 20 mg/kg/day", "value": "5.41 ± 1.05", "unit": "K/ul"}, {"measurement": "MPV", "setting": "PCLX-001 20 mg/kg/day", "value": "7.63 ± 0.23", "unit": "fL"}, {"measurement": "RBC", "setting": "PCLX-001 20 mg/kg/day", "value": "9.03 ± 0.32", "unit": "M/ul"}, {"measurement": "Hemoglobin", "setting": "PCLX-001 20 mg/kg/day", "value": "13.97 ± 0.44", "unit": "g/dL"}, {"measurement": "RDW %", "setting": "PCLX-001 20 mg/kg/day", "value": "25.13 ± 0.65", "unit": "%"}, {"measurement": "MCH", "setting": "PCLX-001 20 mg/kg/day", "value": "15.43 ± 0.3", "unit": "pg"}, {"measurement": "MCHC", "setting": "PCLX-001 20 mg/kg/day", "value": "33.03 ± 0.22", "unit": "g/dL"}, {"measurement": "Hematocrit %", "setting": "PCLX-001 20 mg/kg/day", "value": "42.33 ± 1.48", "unit": "%"}, {"measurement": "MCV", "setting": "PCLX-001 20 mg/kg/day", "value": "46.9 ± 0.65", "unit": "fL"}, {"measurement": "Platelets", "setting": "PCLX-001 20 mg/kg/day", "value": "1234.7 ± 38.49", "unit": "K/uL"}, {"measurement": "Reticulocyte %", "setting": "PCLX-001 50 mg/kg/day", "value": "6.7 ± 0.3", "unit": "%"}, {"measurement": "Reticulocyte %", "setting": "PCLX-001 50 mg/kg/day Interm.", "value": "13.28 ± 6.74", "unit": "%"}, {"measurement": "Absolute Basophil cells", "setting": "PCLX-001 50 mg/kg/day Interm.", "value": "0 ± 0", "unit": "K/ul"}, {"measurement": "Absolute Eosinophil cells", "setting": "PCLX-001 50 mg/kg/day Interm.", "value": "0.05 ± 0.03", "unit": "K/ul"}, {"measurement": "Absolute Monocyte cells", "setting": "PCLX-001 50 mg/kg/day Interm.", "value": "0.91 ± 0.14", "unit": "K/ul"}, {"measurement": "Absolute Lymphocyte cells", "setting": "PCLX-001 50 mg/kg/day Interm.", "value": "1.51 ± 0.47", "unit": "K/ul"}, {"measurement": "WBC", "setting": "PCLX-001 50 mg/kg/day Interm.", "value": "5.94 ± 1.19", "unit": "K/ul"}, {"measurement": "MPV", "setting": "PCLX-001 50 mg/kg/day Interm.", "value": "7.17 ± 0.09", "unit": "fL"}, {"measurement": "RBC", "setting": "PCLX-001 50 mg/kg/day Interm.", "value": "8.07 ± 0.12", "unit": "M/ul"}, {"measurement": "Hemoglobin", "setting": "PCLX-001 50 mg/kg/day Interm.", "value": "12.6 ± 0.15", "unit": "g/dL"}, {"measurement": "RDW %", "setting": "PCLX-001 50 mg/kg/day Interm.", "value": "27.2 ± 1.82", "unit": "%"}, {"measurement": "MCH", "setting": "PCLX-001 50 mg/kg/day Interm.", "value": "15.63 ± 0.12", "unit": "pg"}, {"measurement": "MCHC", "setting": "PCLX-001 50 mg/kg/day Interm.", "value": "31.90 ± 1.01", "unit": "g/dL"}, {"measurement": "Hematocrit %", "setting": "PCLX-001 50 mg/kg/day Interm.", "value": "39.53 ± 0.84", "unit": "%"}, {"measurement": "MCV", "setting": "PCLX-001 50 mg/kg/day Interm.", "value": "49.07 ± 1.72", "unit": "fL"}, {"measurement": "Platelets", "setting": "PCLX-001 50 mg/kg/day Interm.", "value": "1673.7 ± 309.81", "unit": "K/uL"}, {"measurement": "Absolute Basophil cells", "setting": "PCLX-001 50 mg/kg/day", "value": "0 ± 0", "unit": "K/ul"}, {"measurement": "Absolute Eosinophil cells", "setting": "PCLX-001 50 mg/kg/day", "value": "0.01 ± 0.01", "unit": "K/ul"}, {"measurement": "Absolute Monocyte cells", "setting": "PCLX-001 50 mg/kg/day", "value": "0.19 ± 0.06", "unit": "K/ul"}, {"measurement": "Absolute Neutrophil cells", "setting": "PCLX-001 50 mg/kg/day", "value": "1.45 ± 0.22", "unit": "K/ul"}, {"measurement": "Absolute Lymphocyte cells", "setting": "PCLX-001 50 mg/kg/day", "value": "0.23 ± 0.06", "unit": "K/ul"}, {"measurement": "WBC", "setting": "PCLX-001 50 mg/kg/day", "value": "1.89 ± 0.31", "unit": "K/ul"}, {"measurement": "MPV", "setting": "PCLX-001 50 mg/kg/day", "value": "7 ± 0.3", "unit": "fL"}, {"measurement": "RBC", "setting": "PCLX-001 50 mg/kg/day", "value": "9.3 ± 0.17", "unit": "M/ul"}, {"measurement": "Hemoglobin", "setting": "PCLX-001 50 mg/kg/day", "value": "14.77 ± 0.23", "unit": "g/dL"}, {"measurement": "RDW %", "setting": "PCLX-001 50 mg/kg/day", "value": "25.8 ± 0.3", "unit": "%"}, {"measurement": "MCH", "setting": "PCLX-001 50 mg/kg/day", "value": "15.9 ± 0.1", "unit": "pg"}, {"measurement": "MCHC", "setting": "PCLX-001 50 mg/kg/day", "value": "34.1 ± 0.1", "unit": "g/dL"}, {"measurement": "Hematocrit %", "setting": "PCLX-001 50 mg/kg/day", "value": "43.3 ± 0.7", "unit": "%"}, {"measurement": "MCV", "setting": "PCLX-001 50 mg/kg/day", "value": "46.6 ± 0.2", "unit": "fL"}, {"measurement": "Platelets", "setting": "PCLX-001 50 mg/kg/day", "value": "900.7 ± 60.8", "unit": "K/uL"}, {"measurement": "Aspartate Transaminase", "setting": "[1]", "value": "104.33 ± 27.34", "unit": "U/L"}, {"measurement": "Bilirubin", "setting": "[1]", "value": "0.1 ± 0", "unit": "mg/dL"}, {"measurement": "Creatine PhosphoKinase", "setting": "[1]", "value": "81.7 ± 25.1", "unit": "U/L"}, {"measurement": "Creatinine", "setting": "[1]", "value": "0.3 ± 0.067", "unit": "mg/dL"}, {"measurement": "Aspartate Transaminase", "setting": "[2]", "value": "132.67 ± 55.29", "unit": "U/L"}, {"measurement": "Bilirubin", "setting": "[2]", "value": "0.1 ± 0", "unit": "mg/dL"}, {"measurement": "Creatine PhosphoKinase", "setting": "[2]", "value": "54 ± 14.7", "unit": "U/L"}, {"measurement": "Creatinine", "setting": "[2]", "value": "0.3 ± 0", "unit": "mg/dL"}, {"measurement": "Aspartate Transaminase", "setting": "[3]", "value": "125.67 ± 68.18", "unit": "U/L"}, {"measurement": "Bilirubin", "setting": "[3]", "value": "0.1 ± 0", "unit": "mg/dL"}, {"measurement": "Creatine PhosphoKinase", "setting": "[3]", "value": "92.3 ± 29.5", "unit": "U/L"}, {"measurement": "Creatinine", "setting": "[3]", "value": "0.3 ± 0", "unit": "mg/dL"}, {"measurement": "Aspartate Transaminase", "setting": "[4]", "value": "279.7 ± 34.17", "unit": "U/L"}, {"measurement": "Bilirubin", "setting": "[4]", "value": "0.1 ± 0", "unit": "mg/dL"}, {"measurement": "Creatine PhosphoKinase", "setting": "[4]", "value": "266.67 ± 69.9", "unit": "U/L"}, {"measurement": "Creatinine", "setting": "[4]", "value": "0.2 ± 0", "unit": "mg/dL"}, {"measurement": "Noteworthy findings after last dose", "setting": "Group 2, Low-dose, 10 mg/kg", "value": "None"}, {"measurement": "Noteworthy findings after last dose", "setting": "Group 4, Mid-dose, 20 mg/kg", "value": "None"}, {"measurement": "mortality", "setting": "any dose", "value": "does not increase mortality"}]}
